This passage reports relative viability results from the supplement of paper PMC10307832.

Experiment in all cases: relative viability (nuclei count vs DMSO), 5 days (fraction); higher = more cells survive
Compound in experiment [1]: C1=CC2=C(C=C(C(=C2N=C1)O)N=NC3=CC4=C(C=C3)C=C(C=C4)S(=O)(=O)O)S(=O)(=O)O + CC1(C)CCC(c2ccc(Cl)cc2)=C(CN2CCN(c3ccc(C(=O)NS(=O)(=O)c4ccc(N[C@H](CCN5CCOCC5)CSc5ccccc5)c(S(=O)(=O)C(F)(F)F)c4)cc3)CC2)C1 [Navitoclax] (partner 0.5 µM)
In outline: (§1)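 Lung cancer cell lines, seeded in 1536-well plates, were treated the following day by pin tool with a single drug or with five library-drug doses (not always all listed) in √10 steps on top of a fixed anchor-drug dose. Cells were fixed and nuclei stained in one step after 5 days, and nuclei were counted. Relative viability is the nuclei count for treated wells divided by that for vehicle wells, reported as medians of duplicate plates.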

Compound in experiment [2]: C1=CC2=C(C=C(C(=C2N=C1)O)N=NC3=CC4=C(C=C3)C=C(C=C4)S(=O)(=O)O)S(=O)(=O)O + CS(=O)(=O)N1CCN(Cc2cc3nc(-c4cccc5[nH]ncc45)nc(N4CCOCC4)c3s2)CC1 [Pictilisib] (partner 1 µM)
In outline:
as §1

Compound in experiment [3]: C1=CC2=C(C=C(C(=C2N=C1)O)N=NC3=CC4=C(C=C3)C=C(C=C4)S(=O)(=O)O)S(=O)(=O)O + O=C(c1cc(Cc2n[nH]c(=O)c3ccccc23)ccc1F)N1CCN(C(=O)C2CC2)CC1 [Olaparib] (partner 8 µM)
The gist of the method:
as §1

Compound in the experiment “AT-7519 + Dasatinib”: O=C(NC1CCNCC1)c1n[nH]cc1NC(=O)c1c(Cl)cccc1Cl [AT-7519] + Cc1nc(Nc2ncc(C(=O)Nc3c(C)cccc3Cl)s2)cc(N2CCN(CCO)CC2)n1 [Dasatinib] (partner 0.075 µM)
The gist of the method:
as §1

On to UMC-11, for which the relative viability in experiment [1] (first compound 0.08 µM) was 0.261; in experiment [1] (first compound 0.253 µM), 0.334; in experiment [1] (first compound 0.8 µM), 0.314; in experiment [1] (first compound 2.53 µM) it was 0.293; in experiment [1] (first compound 8 µM), 0.333; in experiment [2] (first compound 0.08 µM), 1.05. For the same cell line, the relative viability in experiment [2] (first compound 0.253 µM) was 0.762; in experiment [2] (first compound 0.8 µM), 0.761; in experiment [2] (first compound 2.53 µM), 0.908; in experiment [2] (first compound 8 µM), 0.833; in experiment [3] (first compound 0.08 µM), 0.36; in experiment [3] (first compound 0.253 µM), 0.381. Besides, the relative viability was found to be 0.34 in experiment [3] (first compound 0.8 µM); 0.376 in experiment [3] (first compound 2.53 µM); 0.317 in experiment [3] (first compound 8 µM); 0.413 with AT-7519 + Dasatinib (first compound 0.01 µM); 0.482 in the experiment with AT-7519 + Dasatinib (first compound 0.03162 µM); 0.297 in the experiment with AT-7519 + Dasatinib (first compound 0.3162 µM). The relative viability with AT-7519 + Dasatinib (first compound 1 µM) stood at 0.238.
